Experimental data reported in patent US20110201665A1, “Compositions, Methods, and Kits for Treating Influenza Viral Infections” (priority 2009, published 2011).

What was measured:
[1] = design: dose or concentration left out as unconfirmed; conditions: Phase I, single or multiple oral doses; cited from earlier work
influenza A or B viruses = conditions: human, in vivo, po; cited from earlier work
[2] = test system: Influenza A/NWS/33 (H1N1); design: species or system C57/BL6 mice; conditions: mouse, in vivo; for survival on day 8: po
[3] = in vivo, po; cited from earlier work

SMILES: CCC(CC)[C@H](NC(C)=O)[C@@H]1[C@H](O)[C@@H](C(=O)O)C[C@H]1NC(=N)N [peramivir, (1S,2S,3S,4R)-3-[(1S)-1-Acetamido-2-ethyl-butyl]-4-(diaminomethylideneamino)-2-hydroxy-cyclopentane-1-carboxylic acid]
- tolerability [1]: well-tolerated
- adverse effects (influenza A or B viruses): no adverse effects

SMILES: O=C(Nc1c(Cl)cncc1Cl)c1ccc(OC(F)F)c(OCC2CC2)c1 [roflumilast, 3-(cyclopropylmethoxy)-N-(3,5-dichloropyridin-4-yl)-4-(difluoromethoxy)benzamide]
- survival on day 8 [2]: 0%

SMILES: CCOC(=O)C1=C[C@@H](OC(CC)CC)[C@H](NC(C)=O)[C@@H](N)C1 [oseltamivir, (3R,4R,5S)-4-acetylamino-5-amino-3(1-ethylpropoxy)-1-cyclohexene-1-carboxylic acid, ethyl ester]
- survival rate [2]: 40%
- half-life [3]: 6 to 10 h

SMILES: CC(C)C(=O)c1c(C(C)C)nn2ccccc12 [ibudilast, 1-(2-isopropyl-pyrazolo[1,5-a]pyridine-3-yl)-2-methylpropan-1-one]
- survival on day 8 [2]: 0%

SMILES: COc1ccc(C2CNC(=O)C2)cc1OC1CCCC1 (stereo not shown) [rolipram, 4-[3-(cyclopentyloxy)-4-methoxyphenyl]-2-pyrrolidone]
- survival on day 8 [2]: 0%
